Data published in publication PMC5814754, “Quantitative, Wide-Spectrum Kinase Profiling in Live Cells for Assessing the Effect of Cellular ATP on Target Engagement” (Cell Chemical Biology, 2018).
Like-named read-outs stand apart in the source and are kept apart here. Blank lines part the entries; values can stand above or below the compound they belong to.

Columns and labels:
[1] = target: full-length kinase/Nluc fusion proteins (Homo sapiens, UniProt O15197); test: Apparent affinity (EC50) of energy transfer probes by titration onto live HEK293 cells expressing kinase/Nluc fusions (Table S1); format: binding; details: EPHB6, Nluc C; read-out: Probe EC50
[2] = target: full-length kinase/Nluc fusion proteins (Homo sapiens, UniProt Q16832); test: as above; format: binding; details: DDR2, Nluc C; read-out: Probe EC50
MET = details: read-out: Live Cell IC50 Phospho Elisa; ref Cui et al., 2011; cited from earlier work
AXL [3] = details: read-out: Crizotinib IC50 Biochemical; ref Cui et al., 2011; cited from earlier work
AXL [4] = details: read-out: Live Cell IC50 Phospho Elisa; ref Cui et al., 2011; cited from earlier work
INSR = details: read-out: Live Cell IC50 Phospho Elisa; ref Cui et al., 2011; cited from earlier work
178 full-length kinases [5] = target: 178 full-length kinases (Homo sapiens, UniProt Q92772); test: NanoBRET single-dose fractional occupancy profiling of kinase/Nluc library in live HEK293 cells (Table S1); format: binding; parameters: Occupancy, % Replicate 1 / Occupancy, % Replicate 2: unit of the concentration uncertain; details: CDKL2, Nluc N, probe 1 at 0.1 (unit uncertain)
178 full-length kinases [6] = target: 178 full-length kinases (Homo sapiens, UniProt Q9NYY3); test: as above; format: binding; parameters: Occupancy, % Replicate 1 / Occupancy, % Replicate 2: unit of the concentration uncertain; details: PLK2, Nluc N, probe 5 at 1 (unit uncertain)
178 full-length kinases [7] = target: 178 full-length kinases (Homo sapiens, UniProt P27037); test: as above; format: binding; parameters: Occupancy, % Replicate 1 / Occupancy, % Replicate 2: unit of the concentration uncertain; details: ACVR2A, Nluc C, probe 2 at 1 (unit uncertain)
178 full-length kinases [8] = target: 178 full-length kinases (Homo sapiens, UniProt Q00535); test: as above; format: binding; parameters: Occupancy, % Replicate 1 / Occupancy, % Replicate 2: unit of the concentration uncertain; details: CDK5, Nluc C, probe 5 at 1 (unit uncertain)
178 full-length kinases [9] = target: 178 full-length kinases (Homo sapiens, UniProt P42685); test: as above; format: binding; parameters: Occupancy, % Replicate 1 / Occupancy, % Replicate 2: unit of the concentration uncertain; details: FRK, Nluc C, probe 6 at 0.5 (unit uncertain)
178 full-length kinases [10] = target: 178 full-length kinases (Homo sapiens, UniProt P31749); test: as above; format: binding; parameters: Occupancy, % Replicate 1 / Occupancy, % Replicate 2: unit of the concentration uncertain; details: AKT1, Nluc C, probe 5 at 1 (unit uncertain)
TRKB = details: read-out: Live Cell IC50 Phospho Elisa; ref Cui et al., 2011; cited from earlier work
TIE2 = details: read-out: Crizotinib IC50 Biochemical; ref Cui et al., 2011; cited from earlier work
LCK [11] = details: read-out: cellular potency (phospho-ELISA), ref Cui et al., 2011; cited from earlier work
TRKA = details: read-out: Crizotinib IC50 Biochemical; ref Cui et al., 2011; cited from earlier work
[12] = target: full-length kinase/Nluc fusion proteins (Homo sapiens, UniProt P22607); test: Apparent affinity (EC50) of energy transfer probes by titration onto live HEK293 cells expressing kinase/Nluc fusions (Table S1); format: binding; details: FGFR3, Nluc C; read-out: Probe EC50
[13] = target: full-length kinase/Nluc fusion proteins (Homo sapiens, UniProt P53667); test: as above; format: binding; details: LIMK1, Nluc C; read-out: Probe EC50
[14] = target: full-length kinase/Nluc fusion proteins (Homo sapiens, UniProt Q06187); test: as above; format: binding; details: BTK, Nluc C; read-out: Probe EC50
MuSK = target: T1, MuSK (Homo sapiens, UniProt O15146); test: NanoBRET target engagement, MuSK-NanoLuc, HEK293 cells (live, ATP depleted, permeabilized); format: binding; details: read-out: Tracer Affinity EC50
T1 sequence (O15146 24-869): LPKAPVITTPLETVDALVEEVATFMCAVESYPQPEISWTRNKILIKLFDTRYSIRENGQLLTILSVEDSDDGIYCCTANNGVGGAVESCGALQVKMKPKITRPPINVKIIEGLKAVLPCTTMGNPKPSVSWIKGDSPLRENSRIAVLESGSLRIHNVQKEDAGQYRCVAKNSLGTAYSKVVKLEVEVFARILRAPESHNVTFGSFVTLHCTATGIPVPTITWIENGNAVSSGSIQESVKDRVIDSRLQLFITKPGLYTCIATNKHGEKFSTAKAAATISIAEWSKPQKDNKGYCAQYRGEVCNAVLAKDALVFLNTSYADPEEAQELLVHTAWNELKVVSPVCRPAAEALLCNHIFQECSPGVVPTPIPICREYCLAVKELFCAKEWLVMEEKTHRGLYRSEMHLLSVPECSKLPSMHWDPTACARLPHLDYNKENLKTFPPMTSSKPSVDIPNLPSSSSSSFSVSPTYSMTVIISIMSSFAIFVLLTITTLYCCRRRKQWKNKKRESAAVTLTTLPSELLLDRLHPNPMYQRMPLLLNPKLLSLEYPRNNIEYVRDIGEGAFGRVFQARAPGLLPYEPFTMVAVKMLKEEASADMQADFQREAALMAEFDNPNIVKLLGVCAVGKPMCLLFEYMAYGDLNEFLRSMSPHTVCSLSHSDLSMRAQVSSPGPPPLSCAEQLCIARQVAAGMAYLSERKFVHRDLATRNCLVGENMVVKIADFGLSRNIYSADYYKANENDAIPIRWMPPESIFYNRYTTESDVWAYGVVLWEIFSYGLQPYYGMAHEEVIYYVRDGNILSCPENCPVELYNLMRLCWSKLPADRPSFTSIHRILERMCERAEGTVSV

LCK [15] = target: LCK (Homo sapiens, UniProt P06239); test: NanoBRET target engagement, LCK-NanoLuc, HEK293 cells (live, ATP depleted, permeabilized); format: binding; details: LCK-NanoLuc, read-out: Tracer Affinity EC50
Chain of LCK (P06239 whole entry): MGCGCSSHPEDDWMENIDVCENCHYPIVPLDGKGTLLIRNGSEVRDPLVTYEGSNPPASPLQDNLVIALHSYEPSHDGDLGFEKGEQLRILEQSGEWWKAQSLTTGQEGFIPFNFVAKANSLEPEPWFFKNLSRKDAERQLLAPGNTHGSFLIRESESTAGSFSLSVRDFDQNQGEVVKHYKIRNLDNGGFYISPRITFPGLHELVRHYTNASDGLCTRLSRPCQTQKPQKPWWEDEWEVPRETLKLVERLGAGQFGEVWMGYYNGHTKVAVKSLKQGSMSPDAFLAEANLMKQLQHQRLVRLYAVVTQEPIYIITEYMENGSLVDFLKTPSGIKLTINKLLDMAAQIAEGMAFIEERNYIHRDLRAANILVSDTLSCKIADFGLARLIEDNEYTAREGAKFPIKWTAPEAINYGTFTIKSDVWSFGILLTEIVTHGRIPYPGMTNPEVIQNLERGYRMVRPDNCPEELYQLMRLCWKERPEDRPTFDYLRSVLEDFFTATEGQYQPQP

Chain of 178 full-length kinases (Homo sapiens, UniProt Q9NYY3) (Q9NYY3 whole entry): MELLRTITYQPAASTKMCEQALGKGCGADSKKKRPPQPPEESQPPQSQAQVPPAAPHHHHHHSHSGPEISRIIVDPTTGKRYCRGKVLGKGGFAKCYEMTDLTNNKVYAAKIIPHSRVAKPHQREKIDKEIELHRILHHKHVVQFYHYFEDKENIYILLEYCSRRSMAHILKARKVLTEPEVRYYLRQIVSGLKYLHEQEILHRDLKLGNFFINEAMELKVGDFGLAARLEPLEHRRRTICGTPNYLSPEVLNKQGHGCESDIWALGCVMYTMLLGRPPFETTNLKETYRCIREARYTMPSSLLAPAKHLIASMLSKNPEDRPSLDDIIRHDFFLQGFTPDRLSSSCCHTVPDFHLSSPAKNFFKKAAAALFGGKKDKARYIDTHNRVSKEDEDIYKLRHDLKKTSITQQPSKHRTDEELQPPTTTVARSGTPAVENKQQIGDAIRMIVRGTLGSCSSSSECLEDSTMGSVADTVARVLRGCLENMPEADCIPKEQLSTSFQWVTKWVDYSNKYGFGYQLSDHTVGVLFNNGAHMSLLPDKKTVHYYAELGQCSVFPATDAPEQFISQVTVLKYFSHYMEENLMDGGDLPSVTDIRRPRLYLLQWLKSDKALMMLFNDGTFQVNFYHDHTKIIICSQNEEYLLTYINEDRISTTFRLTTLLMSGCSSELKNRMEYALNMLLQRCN
Chain of 178 full-length kinases (Homo sapiens, UniProt P31749) (P31749 whole entry): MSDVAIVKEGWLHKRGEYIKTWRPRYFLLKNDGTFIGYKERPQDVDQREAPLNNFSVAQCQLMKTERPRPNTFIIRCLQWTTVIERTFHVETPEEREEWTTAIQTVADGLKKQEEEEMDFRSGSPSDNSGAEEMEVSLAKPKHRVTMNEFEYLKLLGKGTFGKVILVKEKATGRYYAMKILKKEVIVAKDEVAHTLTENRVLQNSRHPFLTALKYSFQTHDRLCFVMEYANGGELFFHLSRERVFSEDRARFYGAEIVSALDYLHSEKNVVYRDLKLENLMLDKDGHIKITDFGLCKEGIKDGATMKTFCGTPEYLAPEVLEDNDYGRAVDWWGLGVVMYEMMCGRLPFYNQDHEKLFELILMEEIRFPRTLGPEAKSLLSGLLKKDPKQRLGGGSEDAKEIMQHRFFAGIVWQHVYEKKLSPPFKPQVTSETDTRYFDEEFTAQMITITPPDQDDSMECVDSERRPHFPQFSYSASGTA
Chain of 178 full-length kinases (Homo sapiens, UniProt Q00535) (Q00535 whole entry): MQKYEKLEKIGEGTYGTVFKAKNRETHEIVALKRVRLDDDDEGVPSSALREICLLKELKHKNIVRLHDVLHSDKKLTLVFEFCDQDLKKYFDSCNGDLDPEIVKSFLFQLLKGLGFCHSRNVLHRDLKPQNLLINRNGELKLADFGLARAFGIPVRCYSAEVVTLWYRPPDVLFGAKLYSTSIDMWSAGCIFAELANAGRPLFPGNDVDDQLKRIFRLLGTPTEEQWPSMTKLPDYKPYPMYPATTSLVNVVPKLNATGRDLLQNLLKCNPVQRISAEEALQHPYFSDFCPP
Chain of 178 full-length kinases (Homo sapiens, UniProt Q92772) (Q92772 whole entry): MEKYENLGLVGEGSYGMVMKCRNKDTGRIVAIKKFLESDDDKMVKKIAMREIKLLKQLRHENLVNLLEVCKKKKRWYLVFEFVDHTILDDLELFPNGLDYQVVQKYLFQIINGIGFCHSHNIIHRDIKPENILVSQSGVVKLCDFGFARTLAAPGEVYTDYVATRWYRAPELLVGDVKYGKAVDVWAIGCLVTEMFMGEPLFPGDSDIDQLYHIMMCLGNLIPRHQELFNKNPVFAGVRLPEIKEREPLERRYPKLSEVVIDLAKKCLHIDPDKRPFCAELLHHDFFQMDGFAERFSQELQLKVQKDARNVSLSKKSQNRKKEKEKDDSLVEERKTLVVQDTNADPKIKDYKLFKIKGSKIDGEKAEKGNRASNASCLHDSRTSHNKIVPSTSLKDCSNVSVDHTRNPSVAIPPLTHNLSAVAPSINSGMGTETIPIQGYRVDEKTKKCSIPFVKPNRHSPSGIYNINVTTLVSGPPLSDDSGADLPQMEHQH
Chain of 178 full-length kinases (Homo sapiens, UniProt P27037) (P27037 20-513): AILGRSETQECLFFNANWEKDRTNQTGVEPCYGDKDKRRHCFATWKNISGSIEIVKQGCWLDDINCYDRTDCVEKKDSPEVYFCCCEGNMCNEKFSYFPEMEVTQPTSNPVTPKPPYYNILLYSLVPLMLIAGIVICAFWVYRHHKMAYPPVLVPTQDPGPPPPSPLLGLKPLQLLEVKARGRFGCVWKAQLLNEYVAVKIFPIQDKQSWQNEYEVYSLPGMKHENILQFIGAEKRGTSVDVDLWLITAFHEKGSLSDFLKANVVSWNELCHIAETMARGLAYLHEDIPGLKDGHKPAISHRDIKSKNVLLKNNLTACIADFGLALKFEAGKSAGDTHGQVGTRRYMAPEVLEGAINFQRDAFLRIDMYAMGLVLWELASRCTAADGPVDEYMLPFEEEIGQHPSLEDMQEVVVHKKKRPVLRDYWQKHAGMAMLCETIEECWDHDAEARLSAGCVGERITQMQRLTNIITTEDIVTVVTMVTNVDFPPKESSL
Chain of full-length kinase/Nluc fusion proteins (Homo sapiens, UniProt O15197) (O15197 32-1021): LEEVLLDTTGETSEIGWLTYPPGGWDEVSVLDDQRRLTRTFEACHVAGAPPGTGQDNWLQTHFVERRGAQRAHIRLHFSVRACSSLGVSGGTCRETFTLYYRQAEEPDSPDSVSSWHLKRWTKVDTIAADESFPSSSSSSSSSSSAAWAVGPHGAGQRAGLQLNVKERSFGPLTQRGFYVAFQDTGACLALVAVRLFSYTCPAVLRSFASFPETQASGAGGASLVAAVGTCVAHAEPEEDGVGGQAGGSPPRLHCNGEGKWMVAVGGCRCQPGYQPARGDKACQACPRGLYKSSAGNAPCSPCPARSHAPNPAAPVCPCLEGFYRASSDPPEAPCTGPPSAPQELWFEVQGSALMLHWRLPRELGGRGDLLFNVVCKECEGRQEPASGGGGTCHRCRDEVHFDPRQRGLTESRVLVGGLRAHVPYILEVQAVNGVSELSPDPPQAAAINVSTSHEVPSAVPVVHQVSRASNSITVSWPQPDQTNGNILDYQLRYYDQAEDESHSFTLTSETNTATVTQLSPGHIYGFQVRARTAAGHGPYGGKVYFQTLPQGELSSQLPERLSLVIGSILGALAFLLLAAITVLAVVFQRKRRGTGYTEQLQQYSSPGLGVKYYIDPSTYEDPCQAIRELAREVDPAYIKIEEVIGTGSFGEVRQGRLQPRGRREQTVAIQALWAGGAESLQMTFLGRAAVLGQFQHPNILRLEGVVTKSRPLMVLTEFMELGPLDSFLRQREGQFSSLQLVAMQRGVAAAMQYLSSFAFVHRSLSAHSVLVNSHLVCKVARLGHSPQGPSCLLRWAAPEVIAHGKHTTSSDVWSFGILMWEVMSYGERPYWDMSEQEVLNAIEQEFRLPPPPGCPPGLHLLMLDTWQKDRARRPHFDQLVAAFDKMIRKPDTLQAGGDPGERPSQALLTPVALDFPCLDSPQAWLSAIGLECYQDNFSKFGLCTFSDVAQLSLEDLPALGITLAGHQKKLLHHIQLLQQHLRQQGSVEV
Chain of 178 full-length kinases (Homo sapiens, UniProt P42685) (P42685 whole entry): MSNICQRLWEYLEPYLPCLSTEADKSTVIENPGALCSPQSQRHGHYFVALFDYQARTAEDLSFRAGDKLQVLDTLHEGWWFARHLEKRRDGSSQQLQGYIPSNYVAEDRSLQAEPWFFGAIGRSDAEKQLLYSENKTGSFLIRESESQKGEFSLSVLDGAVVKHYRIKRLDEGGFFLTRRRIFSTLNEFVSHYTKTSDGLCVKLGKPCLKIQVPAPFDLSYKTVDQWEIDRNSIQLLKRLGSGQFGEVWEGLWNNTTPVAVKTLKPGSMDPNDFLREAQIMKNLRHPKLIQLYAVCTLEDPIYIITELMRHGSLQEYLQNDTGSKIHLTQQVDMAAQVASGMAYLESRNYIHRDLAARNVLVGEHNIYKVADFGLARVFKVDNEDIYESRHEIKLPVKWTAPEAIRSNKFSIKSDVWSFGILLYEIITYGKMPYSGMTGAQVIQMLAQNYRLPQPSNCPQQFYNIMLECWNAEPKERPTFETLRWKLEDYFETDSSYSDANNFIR

EC50 [1]: > 1 µM | EC50 [2]: 0.1 µM
SMILES: Cc1nc(Nc2ncc(C(=O)Nc3c(C)cccc3Cl)s2)cc(N2CCN(CCOCCNC(=O)CCc3ccc4n3[B-](F)(F)[N+]3=C(c5ccc[nH]5)C=CC3=C4)CC2)n1 [Energy Transfer Probe 6, 2-((6-(4-(2-(2-aminoethoxy)ethyl)piperazin-1-yl)-2-methylpyrimidin-4-yl)amino)-N-(2-chloro-6-methylphenyl)thiazole-5-carboxamide-NanoBRET 590]

SMILES: C[C@@H](Oc1cc(-c2cnn(C3CCNCC3)c2)cnc1N)c1c(Cl)ccc(F)c1Cl [Crizotinib]
IC50 (MET): […] | IC50 (AXL [3]): […] | IC50 (AXL [4]): […] | IC50 (INSR): […] | Occupancy, % Replicate 1 (178 full-length kinases [5]): No Binding | Occupancy, % Replicate 2 (178 full-length kinases [5]): No Binding | Occupancy, % Replicate 1 (178 full-length kinases [6]): No Binding | Occupancy, % Replicate 2 (178 full-length kinases [6]): No Binding | Occupancy, % Replicate 1 (178 full-length kinases [7]): No Binding | Occupancy, % Replicate 2 (178 full-length kinases [7]): No Binding | Occupancy, % Replicate 1 (178 full-length kinases [8]): No Binding | Occupancy, % Replicate 2 (178 full-length kinases [8]): No Binding | Occupancy, % Replicate 2 (178 full-length kinases [9]): No Binding | Occupancy, % Replicate 1 (178 full-length kinases [10]): No Binding | Occupancy, % Replicate 2 (178 full-length kinases [10]): No Binding | IC50 (TRKB): […] | IC50 (TIE2): […] | IC50 (LCK [11]): […] | IC50 (TRKA): […]

EC50 [12]: 0.5 µM | EC50 [13]: > 1 µM | EC50 [14]: 0.6 µM | EC50 (MuSK; ATP Depleted): > 1 µM | EC50 (MuSK; Live): > 1 µM | EC50 (MuSK; Permeabilized): 0.18 ± 0.02 µM | EC50 (LCK [15]; ATP Depleted): 0.37 ± 0.07 µM | EC50 (LCK [15]; Live): > 1 µM | EC50 (LCK [15]; Permeabilized): 0.052 ± 0.003 µM
SMILES: CNC(=O)c1ccccc1Nc1nc(Nc2ccc(N3CCN(C(=O)CCOCCOCCOCCOCCNC(=O)CCc4ccc5n4[B-](F)(F)[N+]4=C(c6ccc[nH]6)C=CC4=C5)CC3)cc2)ncc1Cl [Energy Transfer Probe 5, 2-((2-((4-(4-(1-amino-3,6,9,12-tetraoxapentadecan-15-oyl)piperazin-1-yl)phenyl)amino)-5-chloropyrimidin-4-yl)amino)-N-methylbenzamide-NanoBRET 590]
